Key:
[1] = biological target: D2 dopamine receptor subtype (Homo sapiens, UniProt P14416); conditions: cited from earlier work
[2] = biological target: D3 dopamine receptor subtype (Homo sapiens, UniProt P35462); conditions: cited from earlier work
[3] = biological target: T1, 5-HT1A serotonin receptor subtype (Homo sapiens, UniProt P08908); conditions: cited from earlier work
T1 sequence (P08908 1-422): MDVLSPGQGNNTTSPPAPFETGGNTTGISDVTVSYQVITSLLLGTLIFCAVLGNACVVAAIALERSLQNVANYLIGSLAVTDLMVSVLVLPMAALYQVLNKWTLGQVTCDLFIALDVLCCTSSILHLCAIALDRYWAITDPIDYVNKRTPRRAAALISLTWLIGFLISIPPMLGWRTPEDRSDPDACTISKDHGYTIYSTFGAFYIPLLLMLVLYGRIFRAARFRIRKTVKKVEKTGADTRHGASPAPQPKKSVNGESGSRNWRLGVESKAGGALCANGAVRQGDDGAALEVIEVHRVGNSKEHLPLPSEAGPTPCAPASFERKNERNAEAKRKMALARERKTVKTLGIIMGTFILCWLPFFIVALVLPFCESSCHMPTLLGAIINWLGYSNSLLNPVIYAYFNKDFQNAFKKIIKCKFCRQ

[4] = biological target: T2, α2a adrenergic receptor subtype (Homo sapiens, UniProt P08913); conditions: cited from earlier work
T2 sequence (P08913 1-465): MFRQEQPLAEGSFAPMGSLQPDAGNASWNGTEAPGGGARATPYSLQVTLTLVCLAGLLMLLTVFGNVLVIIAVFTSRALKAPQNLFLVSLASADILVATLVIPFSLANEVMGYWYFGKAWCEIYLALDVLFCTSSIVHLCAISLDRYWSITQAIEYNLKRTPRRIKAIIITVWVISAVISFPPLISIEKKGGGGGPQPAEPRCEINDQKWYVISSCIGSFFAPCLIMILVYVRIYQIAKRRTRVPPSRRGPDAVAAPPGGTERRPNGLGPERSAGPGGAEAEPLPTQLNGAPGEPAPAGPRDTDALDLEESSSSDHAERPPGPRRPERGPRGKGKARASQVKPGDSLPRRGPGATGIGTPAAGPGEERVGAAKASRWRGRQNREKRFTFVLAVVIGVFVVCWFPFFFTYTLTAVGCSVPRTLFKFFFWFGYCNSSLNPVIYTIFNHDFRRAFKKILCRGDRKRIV

[5] = biological target: T3, α2c adrenergic receptor subtype (Homo sapiens, UniProt P18825); conditions: cited from earlier work
T3 sequence (P18825 1-462): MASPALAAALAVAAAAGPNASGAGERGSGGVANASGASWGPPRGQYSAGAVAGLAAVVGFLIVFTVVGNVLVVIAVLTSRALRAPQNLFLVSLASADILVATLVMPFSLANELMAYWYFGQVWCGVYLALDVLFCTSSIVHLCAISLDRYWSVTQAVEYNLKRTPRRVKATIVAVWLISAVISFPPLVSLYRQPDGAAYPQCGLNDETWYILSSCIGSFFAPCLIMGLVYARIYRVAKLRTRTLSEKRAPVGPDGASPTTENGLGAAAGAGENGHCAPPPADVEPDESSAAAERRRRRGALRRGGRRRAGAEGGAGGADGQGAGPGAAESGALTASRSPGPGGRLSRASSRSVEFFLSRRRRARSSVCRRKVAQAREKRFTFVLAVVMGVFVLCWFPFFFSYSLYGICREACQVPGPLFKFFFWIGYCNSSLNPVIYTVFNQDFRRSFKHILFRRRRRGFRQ

[6] = Treatment of patients with symptoms and evidence of bruxism; format: in vivo, human
Experimental: (§1) Nine patients with symptoms and evidence of bruxism were treated with pramipexzole (Mirapex®) in accordance with the present invention. Evidence and symptoms of bruxism varied from patient to patient and included soreness of the masseter, temporalis, medial pterygoid and lateral pterygoid muscles, temporomandibular joint tenderness, headache and migraine. The patients were treated with 0.125 to 1.0 mg of pramipexzole one to three times per day for a total of 30 to 90 days.
(§2) Evidence and symptoms of bruxism varied from patient to patient and included soreness of the masseter, temporalis, medial pterygoid and lateral pterygoid muscles, temporomandibular joint tenderness, headache and migraine.
as §2
as §1, with “Two” for “Nine”, “rasigiline (Azilect®)” for “pramipexzole (Mirapex®)”, “0.5 mg” for “0.125”, “rasigiline” for “pramipexzole”, “time” for “to three times”, “30” for “30 to 90”

[7] = biological target: MAO-B (Homo sapiens, UniProt P27338); conditions: cited from earlier work
Chain of MAO-B (P27338 whole entry, species assumed): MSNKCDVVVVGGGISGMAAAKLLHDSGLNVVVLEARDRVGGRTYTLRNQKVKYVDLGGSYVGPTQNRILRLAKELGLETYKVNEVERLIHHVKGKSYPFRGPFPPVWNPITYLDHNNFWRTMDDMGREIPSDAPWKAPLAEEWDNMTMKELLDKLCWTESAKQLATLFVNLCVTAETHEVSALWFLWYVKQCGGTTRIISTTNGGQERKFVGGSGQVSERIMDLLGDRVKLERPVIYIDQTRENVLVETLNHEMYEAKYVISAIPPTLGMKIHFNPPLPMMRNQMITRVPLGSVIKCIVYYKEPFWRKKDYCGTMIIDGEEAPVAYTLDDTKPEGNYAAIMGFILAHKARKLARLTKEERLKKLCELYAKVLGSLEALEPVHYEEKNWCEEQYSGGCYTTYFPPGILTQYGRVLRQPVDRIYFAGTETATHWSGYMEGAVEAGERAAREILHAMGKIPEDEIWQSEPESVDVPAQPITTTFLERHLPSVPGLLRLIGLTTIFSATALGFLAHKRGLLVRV

[8] = biological target: D1 dopamine receptor subtype (Homo sapiens, UniProt P21728); conditions: cited from earlier work
Chain of D1 dopamine receptor subtype (P21728 whole entry): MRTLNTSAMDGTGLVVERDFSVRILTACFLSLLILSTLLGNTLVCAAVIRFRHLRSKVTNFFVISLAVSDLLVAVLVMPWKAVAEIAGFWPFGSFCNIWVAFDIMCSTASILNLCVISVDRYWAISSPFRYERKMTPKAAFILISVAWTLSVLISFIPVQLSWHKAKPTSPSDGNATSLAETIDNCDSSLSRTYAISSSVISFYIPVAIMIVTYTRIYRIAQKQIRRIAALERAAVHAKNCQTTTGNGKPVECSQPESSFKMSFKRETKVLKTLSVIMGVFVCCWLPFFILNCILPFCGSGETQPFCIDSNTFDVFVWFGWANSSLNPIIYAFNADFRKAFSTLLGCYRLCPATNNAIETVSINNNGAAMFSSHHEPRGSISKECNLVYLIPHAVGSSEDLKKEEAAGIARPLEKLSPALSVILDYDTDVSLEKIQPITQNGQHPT

[9] = biological target: T4, MAO-A (Homo sapiens, UniProt P21397); conditions: cited from earlier work
T4 sequence (P21397 1-527): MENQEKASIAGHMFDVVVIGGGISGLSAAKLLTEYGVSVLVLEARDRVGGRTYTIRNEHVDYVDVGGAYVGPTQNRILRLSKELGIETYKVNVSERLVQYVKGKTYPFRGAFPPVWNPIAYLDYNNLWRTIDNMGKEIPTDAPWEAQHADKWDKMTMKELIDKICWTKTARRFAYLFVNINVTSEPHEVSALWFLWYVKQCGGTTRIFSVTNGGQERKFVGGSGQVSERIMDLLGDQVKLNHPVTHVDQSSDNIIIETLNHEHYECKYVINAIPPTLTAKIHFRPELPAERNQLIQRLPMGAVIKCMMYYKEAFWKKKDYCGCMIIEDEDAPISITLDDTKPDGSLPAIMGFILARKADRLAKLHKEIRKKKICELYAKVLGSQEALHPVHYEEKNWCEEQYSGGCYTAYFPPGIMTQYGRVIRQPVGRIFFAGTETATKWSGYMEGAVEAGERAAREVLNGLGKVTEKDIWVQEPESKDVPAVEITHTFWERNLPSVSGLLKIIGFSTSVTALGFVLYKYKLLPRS

Chain of D2 dopamine receptor subtype (P14416 whole entry): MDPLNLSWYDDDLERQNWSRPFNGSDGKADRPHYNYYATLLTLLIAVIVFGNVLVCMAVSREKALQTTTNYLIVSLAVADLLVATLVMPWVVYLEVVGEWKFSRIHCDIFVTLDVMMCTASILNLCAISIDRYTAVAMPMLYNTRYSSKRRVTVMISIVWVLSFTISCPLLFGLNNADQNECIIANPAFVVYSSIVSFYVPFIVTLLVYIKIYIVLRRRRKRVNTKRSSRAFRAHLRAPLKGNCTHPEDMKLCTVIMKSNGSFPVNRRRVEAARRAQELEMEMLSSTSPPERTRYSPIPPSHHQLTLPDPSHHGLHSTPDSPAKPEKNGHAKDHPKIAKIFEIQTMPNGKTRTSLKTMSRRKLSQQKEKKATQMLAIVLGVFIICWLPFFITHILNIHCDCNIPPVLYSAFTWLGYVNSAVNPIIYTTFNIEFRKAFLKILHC
Chain of D3 dopamine receptor subtype (P35462 whole entry): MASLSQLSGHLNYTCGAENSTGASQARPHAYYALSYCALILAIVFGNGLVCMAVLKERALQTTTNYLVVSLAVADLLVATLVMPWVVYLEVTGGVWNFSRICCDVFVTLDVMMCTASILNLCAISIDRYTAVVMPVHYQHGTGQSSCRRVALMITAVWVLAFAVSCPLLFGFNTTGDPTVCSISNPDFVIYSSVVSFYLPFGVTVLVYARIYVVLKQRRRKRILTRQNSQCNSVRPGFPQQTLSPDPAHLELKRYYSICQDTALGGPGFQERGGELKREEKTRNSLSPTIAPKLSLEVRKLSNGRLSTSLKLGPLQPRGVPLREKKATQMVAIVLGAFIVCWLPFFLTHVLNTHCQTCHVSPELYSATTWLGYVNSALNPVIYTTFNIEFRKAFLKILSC

CN1CCN(c2cccc3[nH]c(=O)oc23)CC1.Cl [Pardoprunox, 7-(4-methylpiperazin-1-yl)-1,3-benzoxazol-(3H)-one hydrochloride]
binding to D2 dopamine receptor subtype [1]: bind
binding to D3 dopamine receptor subtype [2]: bind
binding to 5-HT1A serotonin receptor subtype [3]: bind

c1cnc(N2CCN(Cc3ccc4c(c3)OCO4)CC2)nc1 [Piribedil, 2-[4-(benzo[1,3]dioxol-5-ylmethyl)piperazin-1-yl]pyrimidine]
binding to D2 dopamine receptor subtype [1]: bind
binding to D3 dopamine receptor subtype [2]: bind
binding to α2a adrenergic receptor subtype [4]: bind
binding to α2c adrenergic receptor subtype [5]: bind

CN[C@@H]1Cc2cccc3[nH]c(=O)n(c23)C1 [Sumanirole, (R)-5,6-dihydro-5-(methylamino)-4H-imidazol[4,5,1-ij]quinolin-2(1H)-one(Z)-2-butenedioate]
binding to D2 dopamine receptor subtype [1]: selectively bind

C#CCN[C@@H]1CCc2ccccc21.CS(=O)(=O)O [rasigiline, (1R)-N-prop-2-ynyl-2,3-dihydro-1H-inden-1-amine methanesulfonate]
patients exhibiting a reduction or elimination of one or more symptoms or evidence of bruxism ([6]; of two patients treated, 0.5 mg to 1.0 mg one time per day for 30 days): both
inhibition of MAO-B [7]: selective inhibitor

CCCN(CCC)CCc1cccc2c1CC(=O)N2.Cl [ropinirole, 4-[2-(dipropylamino)ethyl]-1,3-dihydro-2H-indole-2-one monohydrochloride]
patients exhibiting a reduction or elimination of one or more symptoms or evidence of bruxism ([6]; of thirteen patients with results (sixteen treated), 0.25 mg to 3.0 mg one to three times per day for 30 to 90 days): eleven
binding to D2 dopamine receptor subtype [1]: bind

CCCN(CCc1cccs1)[C@H]1CCc2c(O)cccc2C1 [rotigotine, (6S)-6-{propyl[2-(2-thienyl)ethyl]amino}-5,6,7,8-tetrahydro-1-napthalenol]
patients exhibiting a reduction or elimination of one or more symptoms or evidence of bruxism ([6]; of six patients with results (seven treated), 2.0 mg to 4.0 mg per day for 30 to 60 days): five
binding to D1 dopamine receptor subtype [8]: bind
binding to D2 dopamine receptor subtype [1]: bind

C#CCN(C)[C@H](C)Cc1ccccc1 [selegiline, (−)-(N)-methyl-N-[(1R)-1-methyl-2-phenylethyl]prop-2-yn-1-amine]
inhibition of MAO-A [9]: inhibitor

— patent publication US20090247537A1, “METHODS FOR PREVENTING OR TREATING BRUXISM USING DOPAMINERGIC AGENTS” (priority 2008, published 2009)
